According to publication PMC9585897 (Peptides, 2022):
Entries after “also recorded” stand apart in the source; their conditions may differ. Non-standard residues stand in square brackets, D forms with d. Residues, ends and D or L forms follow the SMILES beside them. Ahx = NCCCCCC(=O)O

Assays:
[1] = test system: rCoV2-RBD (His-Spike S1 Protein, 13–685 aa); type: binding, SARS-CoV-2
[2] = target: SARS-CoV-2 Spike-ACE2 interaction (Severe acute respiratory syndrome coronavirus 2, UniProt P0DTC2); test: ELISA, SARS-CoV-2 Spike-ACE2 Interaction Inhibitor Screening Assay Kit; type: biochemical

Compound	Binding of CoV2-RBD, sliding window array (in words) [1]	IC50 [2] [nM]	Competition with ACE2 for binding to CoV2-RBD (in words) ([2]; approximately 13.48 μM of ACE2, ELISA)	Inhibition of the Spike-ACE2 interaction (in words) ([2]; competitive ELISA, BP19 1 to 128 μM in triplicates)
SLVAVTAAQSTIEEQAKTFLDKFN [9 ^N]	bound the CoV2-RBD the strongest; also recorded: bound the CoV2-RBD with the greatest intensity	–	–	–
CC[C@H](C)[C@H](NC(=O)[C@H](Cc1ccccc1)NC(=O)[C@H](CCCCN)NC(=O)[C@H](CC(=O)O)NC(=O)[C@H](CC(C)C)NC(=O)[C@H](Cc1ccccc1)NC(=O)[C@@H](NC(=O)[C@H](CCCCN)NC(=O)[C@H](C)NC(=O)[C@H](CCC(N)=O)NC(=O)[C@H](CCC(=O)O)NC(=O)[C@H](CCC(=O)O)NC(=O)[C@@H](NC(=O)[C@@H](NC(=O)[C@H](CO)NC(=O)[C@H](CCC(N)=O)NC(=O)[C@H](C)NC(=O)[C@H](C)NC(=O)[C@@H](NC(=O)[C@@H](NC(=O)[C@H](C)NC(=O)[C@@H](NC(=O)[C@H](CC(C)C)NC(=O)[C@@H](N)CO)C(C)C)C(C)C)[C@@H](C)O)[C@@H](C)O)[C@@H](C)CC)[C@@H](C)O)C(=O)NCCCCCC(=O)N[C@@H](Cc1c[nH]c2ccccc12)C(N)=O [BP19] (H-SLVAVTAAQSTIEEQAKTFLDKFI[Ahx]W-NH2; N-terminus assumed)	–	2080 ± 380	able to outcompete the natural ACE2 at lower than equimolar concentrations; also recorded: outcompeted 13.48 μM of ACE2 for binding to the CoV2-RBD	dose-responsive; also recorded: inhibitory of the Spike-ACE2 interaction in vitro
